According to patent publication US20220146526A1, “METHOD FOR EVALUATING SAMPLE, ANALYSIS METHOD, METHOD FOR DETECTING DEGRADED SAMPLE, MARKER FOR DETECTING DEGRADED BLOOD PLASMA SAMPLE, AND MARKER FOR DETECTING DEGRADED SERUM SAMPLE” (SHIMADZU CORPORATION, priority 2019, published 2022):

Columns and labels:
Assay type in all cases: physicochemical, human
[1] = LC/MS of serum sample: number of times of freezing and thawing (Table M); design: key to Rate of increase or decrease: detection intensity relative to 1 at 2 freeze-thaw cycles; settings: for Number of times when compound is affected / Increase or decrease: serum sample, LC/MS; for Number of times when compound is affected: detection intensity changed by 30% or more vs 2 times of freezing and thawing; for Increase or decrease: detection intensity vs 2 times of freezing and thawing
Protocol: (§1) After standing, the blood sample was subjected to centrifugation under a condition of room temperature, 3500 rpm, and 5 minutes. […] After centrifugation, the blood-collecting vessel was left to stand at room temperature, and the serum was isolated during this time. Here, in order to investigate how the detection intensity of molecules contained in the sample was affected in cases where the time during which the blood-collecting vessel was left at room temperature was set to 1 hour and 6 hours as compared to that in a case where the time was set to 30 minutes, preparations were performed under the respective conditions of 30 minutes, 1 hour, and 6 hours. The obtained serum sample was frozen and stored. Here, in order to investigate how the detection intensity of molecules contained in the sample was affected in cases where freezing and thawing was performed 4 times, 6 times, and 10 times after freezing as compared to that in a case where freezing and thawing was performed 2 times after freezing, freezing and thawing was performed under the respective conditions of 2, 4, 6, and 10 times.
(§2) Frozen blood plasma samples and serum samples were subjected to GC/MS or LC/MS. In GC/MS, the blood plasma samples and serum samples were subjected to methoxymation and trimethylsilylation and then introduced to GC-MS.
(§3) Analysis column: Discovery HS F5-3 (inner diameter of 2.1 mm, length of 150 mm, film thickness of 3 μm) (Sigma-Aldrich)
(§4) Column temperature: 40° C.
(§5) (A) 0.1% formic acid (dissolved in water)
(§6) (B) 0.1% formic acid (dissolved in acetonitrile)
(§7) Flow velocity: 0.25 mL/min
(§8) Ionization method: electrospray
(§9) Temperature: • Desolvation Line (DL) temperature: 250° C. • Heat block temperature: 400° C. • Interface temperature: 300° C.
(§10) Gas flow rate: • Nebulizer gas flow rate: 3.0 L/min • Drying gas flow rate: 10.0 L/min • Heating gas flow rate: 10.0 L/min
(§11) Mode: multiple reaction monitoring (MRM)
The rate of increase or decrease in Table M is the value of detection intensity relative to 1 that is the detection intensity in a case where the number of times of freezing and thawing is set to 2 times.

[2] = LC/MS of blood plasma sample: number of times of freezing and thawing (Table F); settings: for Rate of increase or decrease: detection intensity relative to 1 at 2 times; for Increase or decrease: detection intensity
Protocol: (§12) At room temperature, 5 mL of blood from a healthy subject was taken into a blood-collecting vessel containing EDTA, and the blood-collecting vessel was inverted for mixing, then cooled, and allowed to stand at 4° C. Here, in order to investigate how the detection intensity of molecules contained in the sample was affected in a case where the time to cooling was set to 5 minutes or more as compared to that in a case where the time to cooling was set to 1 minute or less, preparations were performed under both the former condition and the latter condition. After standing, the blood sample was subjected to centrifugation under a condition of 4° C., 3000 rpm, and 15 minutes. […] After centrifugation, the blood-collecting vessel was left to stand at room temperature for 30 minutes, and the blood plasma was isolated during this 30 minutes. The obtained blood plasma sample was frozen and stored. Here, in order to investigate how the detection intensity of molecules contained in the sample was affected in cases where freezing and thawing was performed 4 times, 6 times, and 10 times after freezing as compared to that in a case where freezing and thawing was performed 2 times after freezing, freezing and thawing was performed under the respective conditions of 2, 4, 6, and 10 times.
as §2, §3, §4, §5, §6, §7, §8, §9, §10, §11
The rate of increase or decrease in Table F is the value of detection intensity relative to 1 that is the detection intensity in a case where the number of times of freezing and thawing is set to 2 times.

[3] = GC/MS of serum sample: time from blood collection to centrifugation (Table G); settings: blood collection to centrifugation
Procedure, shortened: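 Blood was held for varying times before centrifugation (room temperature, 3500 rpm, 5 min); serum was frozen, then methoxymated and trimethylsilylated for GC/MS with electron ionization in MRM mode. Values are detection intensities relative to the 15-minute collection-to-centrifugation condition, set as 1.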

[4] = LC/MS of blood plasma sample: time from blood collection to centrifugation (Table D); settings: for Increase or decrease: detection intensity, after 12 hours vs 15 minutes; for Increase or decrease / Rate of increase or decrease: blood collection to centrifugation; for Rate of increase or decrease (second value, decrease) / Rate of increase or decrease (first value, increase): different from individual to individual, relative to 1 at 15 minutes, collection to centrifugation; for Rate of increase or decrease (second value, decrease): individuals with decrease; for Rate of increase or decrease (second value, decrease) / Rate of increase or decrease (first value, increase) / Rate of increase or decrease: after 12 hours; for Rate of increase or decrease (first value, increase): individuals with increase; for Rate of increase or decrease: detection intensity relative to 1 at 15 minutes
Protocol: as §12, §2, §3, §4, §5, §6, §7, §8, §9, §10, §11
The rate of increase or decrease in Table D is the value of detection intensity relative to 1 that is the detection intensity in a case where the time from blood collection to centrifugation is set to 15 minutes.

[5] = GC/MS of serum sample: number of times of freezing and thawing (Table I); design: key to Rate of increase or decrease / Rate of increase or decrease (first value, increase): detection intensity relative to 2 freeze-thaw cycles = 1; settings: serum, GC/MS
Procedure, shortened: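 Serum was isolated after centrifugation at room temperature (3500 rpm, 5 min), frozen, and put through 2, 4, 6 or 10 freeze–thaw cycles. Samples were methoxymated and trimethylsilylated, then run by electron-ionization GC/MS in MRM mode on a BPX5 column (60 to 330 °C). Detection intensity is given relative to the 2-cycle sample, set as 1.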

[6] = GC/MS of serum sample: time from centrifugation to isolation (Table H); design: key to Rate of increase or decrease / Rate of increase or decrease (first value, increase): detection intensity relative to 1 at 30 min centrifugation-to-isolation
Procedure, shortened: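 Blood was centrifuged at room temperature, 3500 rpm, 5 min, and the vessel left at room temperature for 30 min, 1 h or 6 h before serum isolation. Serum was methoxymated, trimethylsilylated and analysed by GC/MS with electron ionization in MRM mode; intensities expressed relative to the 30-min condition (=1).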

[7] = LC/MS of serum sample: time from blood collection to centrifugation (Table J); settings: for Rate of increase or decrease: detection intensity relative to 1 at 15 minutes; for Increase or decrease / Time when compound is affected: serum sample, LC/MS; for Increase or decrease: detection intensity vs 15 minutes from blood collection to centrifugation; for Time when compound is affected: time from blood collection to centrifugation, detection intensity changed by 30% or more vs 15 minutes
Protocol: as §1, §2, §3, §4, §5, §6, §7, §8, §9, §10, §11
The rate of increase or decrease in Table J is the value of detection intensity relative to 1 that is the detection intensity in a case where the time from blood collection to centrifugation is set to 15 minutes.

[8] = 6 times of freezing and thawing, detection intensity relative to 1 at 2 times
[9] = freezing and thawing 10 times vs 2 times
[10] = freezing and thawing 6 times vs 2 times
[11] = 4 times of freezing and thawing, detection intensity relative to 1 at 2 times
[12] = freezing and thawing 4 times vs 2 times

With `O=C(O)[C@@H]1CC(O)CN1` (some centres unmarked) [4-Hydroxyproline] the “Rate of increase or decrease” value [1, 8] was 0.66, the “Number of times when compound is affected” value (shortened to “Number of times”) [1] was 6 times and the Increase or decrease [1] was “Decrease”. The “Rate of increase or decrease” value ([2]; freezing and thawing 10 times) was 1.34, the Increase or decrease [2, 9] was “Increase” and the “Rate of increase or decrease” value ([3]; detection intensity relative to 1 at 15 minutes, after 12 hours) was 1.44. The Increase or decrease ([3]; detection intensity, after 12 hours vs 15 minutes) was “Increase”, the Increase or decrease [4] was “Different from individual” and the “Rate of increase or decrease (second value, decrease)” value [4] was 0.69. For the same compound, the “Rate of increase or decrease (first value, increase)” value [4] was 1.33, the “Rate of increase or decrease” value ([5]; detection intensity relative to 1 at 2 times, freezing and thawing 4 times) was 1.40 and the Increase or decrease ([5]; detection intensity, freezing and thawing 4 times vs 2 times) was “Increase”. For the same compound, the “Rate of increase or decrease” value ([6]; detection intensity relative to 1 at 30 minutes, after 1 hour) was 1.33 and the Increase or decrease ([6]; detection intensity, after 1 hour vs 30 minutes) was “Increase”.
With `C[C@H](N)C(=O)O` [Alanine] the “Rate of increase or decrease” value ([1]; 6 times of freezing and thawing, relative to 1 at 2 times, different from individual to individual, second value (decrease)) was 0.63, the “Number of times” value [1] was 6 times and the Increase or decrease [1] was “Different from individual”. The “Rate of increase or decrease” value ([2]; freezing and thawing 10 times) was 1.34, the Increase or decrease [2, 9] was “Increase” and the Increase or decrease [4] was “Different from individual”. For the same compound, the “Rate of increase or decrease (second value, decrease)” value [4] was 0.64 and the “Rate of increase or decrease (first value, increase)” value [4] was 1.41.
For `NC(=O)C[C@H](N)C(=O)O` [Asparagine], the “Rate of increase or decrease” value [1, 8] was 0.66, the “Number of times” value [1] was 6 times and the Increase or decrease [1] was “Decrease”. For the same compound, the “Rate of increase or decrease” value ([2]; freezing and thawing 10 times) was 1.38, the Increase or decrease [2, 9] was “Increase” and the “Rate of increase or decrease” value ([7]; after 12 hours from blood collection to centrifugation) was 1.40. The Increase or decrease [7] was “Increase” and the “Time when compound is affected” value [7] was “After 12 hours”.
In the case of `C[N+](C)(C)CC(O)CC(=O)[O-]` (centres unmarked) [Carnitine], the “Rate of increase or decrease” value [1, 8] was 0.67, the “Number of times” value [1] was 6 times and the Increase or decrease [1] was “Decrease”. The “Rate of increase or decrease” value ([2]; freezing and thawing 6 times) was 1.30, the Increase or decrease [2, 10] was “Increase” and the Increase or decrease [4] was “Different from individual”. For the same compound, the “Rate of increase or decrease (second value, decrease)” value [4] was 0.64 and the “Rate of increase or decrease (first value, increase)” value [4] was 1.57.
For `NC(=O)NCCC[C@H](N)C(=O)O` [Citrulline], the “Rate of increase or decrease” value [1, 8] was 0.62, the “Number of times” value [1] was 6 times and the Increase or decrease [1] was “Decrease”. The “Rate of increase or decrease” value ([2]; freezing and thawing 10 times) was 1.33, the Increase or decrease [2, 9] was “Increase” and the “Rate of increase or decrease” value [4] was 0.68. The Increase or decrease [4] was “Decrease”.
For `CN(CC(=O)O)C(=N)N` [Creatine], the “Rate of increase or decrease” value [1, 11] was 0.63, the “Number of times” value [1] was 4 times and the Increase or decrease [1] was “Decrease”. The “Rate of increase or decrease” value ([2]; freezing and thawing 4 times) was 1.39, the Increase or decrease [2, 12] was “Increase” and the Increase or decrease [4] was “Different from individual”. The “Rate of increase or decrease (second value, decrease)” value [4] was 0.66 and the “Rate of increase or decrease (first value, increase)” value [4] was 1.67.
In the case of `N[C@@H](CCSC[C@H](N)C(=O)O)C(=O)O` [Cystathionine], the “Rate of increase or decrease” value ([2]; freezing and thawing 4 times) was 1.52, the Increase or decrease [2, 12] was “Increase” and the “Rate of increase or decrease” value [4] was 1.44. For the same compound, the Increase or decrease [4] was “Increase”.
For `NC(=O)CC[C@H](N)C(=O)O` [Glutamine], the “Rate of increase or decrease” value ([2]; freezing and thawing 10 times) was 1.34 and the Increase or decrease [2, 9] was “Increase”.
For `N[C@@H](CCS)C(=O)O` [Homocysteine], the “Rate of increase or decrease” value [1, 8] was 1.30, the “Number of times” value [1] was 6 times and the Increase or decrease [1] was “Decrease”. For the same compound, the “Rate of increase or decrease” value ([2]; freezing and thawing 10 times) was 1.37 and the Increase or decrease [2, 9] was “Increase”.
For `Nc1ccccc1C(=O)CC(N)C(=O)O` (centres unmarked) [Kynurenine], the “Rate of increase or decrease” value [1, 11] was 0.67, the “Number of times” value [1] was 4 times and the Increase or decrease [1] was “Decrease”. For the same compound, the “Rate of increase or decrease” value ([2]; freezing and thawing 6 times) was 1.37, the Increase or decrease [2, 10] was “Increase” and the Increase or decrease [4] was “Different from individual”. The “Rate of increase or decrease (second value, decrease)” value [4] was 0.66 and the “Rate of increase or decrease (first value, increase)” value [4] was 1.85.
For `N[C@@H](CO)C(=O)O` [Serine, serine], the “Rate of increase or decrease” value [1, 8] was 0.66, the “Number of times” value [1] was 6 times and the Increase or decrease [1] was “Decrease”. The “Rate of increase or decrease” value ([7]; after 6 hours from blood collection to centrifugation) was 1.44, the Increase or decrease [7] was “Increase” and the “Time when compound is affected” value [7] was “After 6 hours”.
In the case of `CN=C(NC)NCCC[C@H](N)C(=O)O` [Symmetric dimethylarginine], the “Rate of increase or decrease” value [1, 8] was 0.55, the “Number of times” value [1] was 6 times and the Increase or decrease [1] was “Decrease”. The “Rate of increase or decrease” value ([2]; freezing and thawing 10 times) was 1.31, the Increase or decrease [2, 9] was “Increase” and the Increase or decrease [4] was “Different from individual”. For the same compound, the “Rate of increase or decrease (second value, decrease)” value [4] was 0.68 and the “Rate of increase or decrease (first value, increase)” value [4] was 1.78.
